Drawing on PubChem BioAssay AID493085 (Broad Institute, 2011), this text covers AC50 for 93 compounds.

In general, AC50 refers to the concentration at which the activity in the assay is half-maximal.

Results filed as inconclusive are left out. The source made the active and inactive calls.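 How the source made its calls: active means falling-signal curve with half-maximal concentration at or below ten times the top tested dose; inconclusive means flat fit at 30 to 70% inhibition, or poor fit; inactive means signal rise, flat within 30%, or potency beyond limit.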 Bounds are passed on as bounds.

This assay concerns NIH3T3 R4 HSE-GFP/Tet-RFP reporter, fluorescence, 48 h. Put plainly: Tet-On RFP internal-standard readout, HSF1 screen, dose response, cell-based, NIH3T3 R4, HSE-GFP and Tet-On RFP, cherry-pick, set 3 (AID 493085).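 Further: cells heat shocked 2 h at 42 °C with doxycycline to induce reporters.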
As to `CCn1c(SCC(=O)Nc2oc(C)c3c(C)n[nH]c(=O)c23)nc2sc(C)c(C)c2c1=O`, the AC50 was > 19.5 µM (inactive). The value for `COc1ccc(C(=O)c2c(C(F)(F)F)oc3c2C(=O)c2ccccc2C3=O)cc1` was 2.89 µM.

Consider `COc1ccc(OCc2cccc(C(=O)Nn3cc([N+](=O)[O-])cn3)c2)cc1`, for which the AC50 is 9.72 µM. Turning to `COc1ccc(CNC(=O)c2cnc3scc(C)n3c2=O)cc1`, the AC50 is > 19.5 µM (inactive). For `CC(C)c1ccc(-c2nc3ccccc3s2)cc1` the value was > 19.5 µM (inactive). For `O=S(=O)(c1ccc2c(c1)C(=NO)c1cc(S(=O)(=O)N3CCCCC3)ccc1-2)N1CCCCC1`, the AC50 is 2.9 µM. Turning to `O=C1C(Nc2ccccc2)=C/C(=N/S(=O)(=O)c2cccs2)c2ccccc21`, the concentration at half-maximal activity (AC50) was 9.58 µM.

As for `CC(C)(C)C(=O)NC(=S)NNC(=O)c1sc2ccccc2c1Cl`, the AC50 was > 19.5 µM (inactive).

With `COCC1CCCCN1C(=O)c1cc(COc2ccc3ncccc3c2)on1` (stereo not drawn), the AC50 is 0.448 µM. For `COC(=O)/C(=C1/Oc2cc(C)oc(=O)c2S1)C(F)(F)F` the value was 1.5 µM; for `O=C(CCl)Nc1cc(SCC(O)CO)cc([N+](=O)[O-])c1` (stereo not drawn), 13.7 µM; for `CCOC(=O)c1ccc(-n2[nH]c(-c3ccccc3)cc2=O)cc1`, 4.13 µM.

As to `O=C(CCl)Nc1ccc(Sc2ccc(NC(=O)CCl)cc2)cc1`, the AC50 was 18.3 µM. For `O=C(N/N=C/c1ccc[nH]1)c1ccc(COc2cccc3cccnc23)cc1` the value was 0.821 µM; for `COc1ccccc1-c1cc(C(F)(F)F)nc(S(=O)(=O)CCCC(=O)NCc2ccc(F)cc2)n1`, 5.34 µM; for `Nc1ncnc2c1ccn2[C@@H]1O[C@H](CO)[C@@H](O)[C@H]1O`, 3.17 µM.

Turning to `CCOc1ccc(-n2c(C)c(C(C)=O)c3cc(OC(C)=O)ccc32)cc1`, the AC50 is 2.24 µM.

With `O=C(NCc1ccc2c(c1)OCO2)c1nc(S(=O)(=O)Cc2ccccc2)ncc1Cl`, the AC50 is 16.1 µM.

Turning to `CCC(Sc1nc(C)cc(C)n1)C(=O)NC1=NN=C(c2ccc(C)cc2)CS1` (stereo not drawn), the half-maximal activity concentration (AC50) was 14.8 µM. The value for `Cc1cc(Nc2ccc3c(c2)OCCO3)c2cc(Cl)ccc2n1` was > 19.5 µM (inactive); that for `c1ccc2c(c1)OCC(c1csc3ncnc(N4CCOCC4)c13)O2` (stereo not drawn) was 16.6 µM. The value for `CCOc1cc(C(=O)NCc2ccccc2)ccc1OCC(=O)N1CCOCC1` was > 19.5 µM (inactive); that for `COc1cccc(-c2nnc3n2N=C(C(C)(C)C)CS3)c1` was 0.484 µM. For `Cc1nc2c(-c3ccccc3)c(C)[nH]n2c(=O)c1Cl` the value was > 19.5 µM (inactive); for `CCOC(=O)c1sc(NC(=O)CSc2n[nH]c(-c3ccccc3)n2)c(C#N)c1C`, 14.6 µM. As to `CC1=C(C(=O)OCc2ccc3c(c2)OCO3)C(c2ccc(F)cc2)NC(=O)N1` (stereo not drawn), the AC50 was 0.27 µM. With `S=C1Cc2ccccc2N1`, the AC50 was 2.46 µM. On to `Cn1c(=O)c([N+](=O)[O-])c(Cl)c2ccccc21`, for which the concentration at half-maximal activity (AC50) was 11.4 µM. The value for `O=C(CCCCCn1c(=S)[nH]c2cc3c(cc2c1=O)OCO3)N1CCN(C(=O)c2ccco2)CC1` was > 19.5 µM (inactive); that for `Cc1cccc(C(=O)NC(=S)N2CCN(c3ccc([N+](=O)[O-])cc3)CC2)c1` was > 19.5 µM (inactive). Consider `O=S(=O)(Nc1cccc(Oc2cnccn2)c1)c1ccc(F)cc1`, for which the AC50 was > 19.5 µM (inactive). The value for `O=C(C#Cc1ccccc1)c1ccco1` was 4.11 µM; that for `CCc1ccccc1NC(=O)CSc1nnc(-c2ccncc2)o1` was > 19.5 µM (inactive); that for `COc1c(N2CCN(C(=S)NC3CC4CCC3C4)C(C)C2)c(F)cc2c(=O)c(C(=O)O)cn(C3CC3)c12` (stereo not drawn) was 17.9 µM. Regarding `CCc1ccc(S(=O)(=O)/N=C2\C=C(Nc3ccc(O)cc3)C(=O)c3ccccc32)cc1`, the AC50 was 1.83 µM. Turning to `Cc1ccc(C)c(NC(=O)CCc2nnc3ccc(NCc4ccco4)nn23)c1`, the AC50 was > 19.5 µM (inactive). For `Cc1nn(C(C)(C)C)c(C)c1/C=N/OC(=O)Nc1ccc(Cl)c(Cl)c1` the value was > 19.5 µM (inactive). As to `N#CC1=C(N)C(C#N)(C#N)C(c2cccnc2)C2CC(c3ccccc3)CC=C12` (stereo not drawn), the AC50 is 19.2 µM.

For `COc1ccccc1N(C)S(=O)(=O)c1ccc(C(=O)NC(C)c2ccccc2)cc1` (stereo not drawn), the AC50 is > 19.5 µM (inactive).

As to `CCc1cc(C)cc(OCCNC(=O)c2cncc(Br)c2)c1`, the AC50 is > 19.5 µM (inactive). The value for `Cc1cc(C)c2nc(C(F)(F)F)c(C#N)c(N)c2c1` was 1.54 µM; that for `O=C(Nc1nnc(S(=O)(=O)N2CCCCCC2)s1)c1cccc(Br)c1` was 0.889 µM. The value for `COc1ccc2c(c1)c(CC(=O)Nc1nnc(C3CC3)s1)c(C)n2C(=O)c1ccc(Cl)cc1` was 0.284 µM.

As for `COc1ccc(S(=O)(=O)N2CCCCCC2)cc1C(=O)OCC(=O)NC(C)(C)C`, the AC50 is > 19.5 µM (inactive). For `CN=c1scc(-c2ccco2)n1/N=C/c1ccc(O)c(O)c1` the value was 3.01 µM; for `O=[N+]([O-])c1ccc(S(=O)(=O)c2ccccc2)nc1`, 19.3 µM. For the compound `CCCC(=O)N1CCN(c2ccc(NC(=O)c3cc4ccccc4o3)cc2Cl)CC1`, the AC50 is 13.1 µM. The value for `CC(C)(C)c1nn(-c2ccccc2)c2[nH]c(=O)c(CNc3ccc4c(c3)OCCO4)cc12` was > 19.5 µM (inactive); that for `CN1C(C(=O)Nc2ccc(OC(F)(F)F)cc2)=CC(c2cccs2)=NS1(=O)=O` was 17.7 µM. With `COc1ccc(NCc2nnc(SCC(=O)Nc3cc(C(F)(F)F)ccc3Cl)o2)cc1`, the AC50 was > 19.5 µM (inactive). For `COc1ccc(C)cc1NS(=O)(=O)c1ccc(-c2cnc(C3CC3)o2)cc1` the value was 2.11 µM. For `Cc1ccc(NC2=C/C(=N\S(=O)(=O)c3cccs3)c3ccccc3C2=O)c(C)c1` the value was 1.51 µM; for `CC1CCc2nc(N)c(C#N)c(-c3cccnc3)c2C1` (stereo not drawn), 0.708 µM; for `CC1CCCCN1CC(=O)Nc1ccccc1Sc1ccccc1` (stereo not drawn), 15.1 µM.

Take `O=C(Nc1ccccc1N1CCCCC1)C1CCN(C(=O)c2ccc(Cl)cc2)CC1`: the AC50 is > 19.5 µM (inactive). With `CCc1ccc(C2=NNC(=Nc3cccc(S(=O)(=O)N(C)C)c3)SC2)cc1`, the AC50 is 2 µM. For `CCN1C/C(=C/c2ccc(OC)c(O)c2)C(=O)/C(=C/c2ccc(OC)c(O)c2)C1` the value was 1.8 µM. The value for `OCCCNc1nccc(-c2cc(Nc3cccc(Cl)c3)ncn2)n1` was 0.354 µM; that for `CC[C@H]1CN2CCc3cc(OC)c(OC)cc3[C@@H]2C[C@@H]1C[C@H]1NCCc2cc(OC)c(OC)cc21` was 0.549 µM; that for `N#CC1=C(N)Oc2cc(N)ccc2C1c1ccccc1Cl` (stereo not drawn) was > 19.5 µM (inactive).

Consider `Cc1cc(C)nc(NNC2=CC(=[N+]3CCCCC3)CC(C)(C)C2)n1`, for which the AC50 was 14.5 µM. The value for `CCCS(=O)(=O)N1CCc2cc(OC)c(OC)cc2C1` was > 10 µM (inactive). For `CCCCCCc1cc2cc(S(=O)(=O)c3ccc(F)c(Cl)c3)c(=O)oc2cc1O` the value was 1.52 µM.

Regarding `COc1cccc(CN(C)CC(=O)Nc2cccc(C(F)(F)F)c2)c1OC`, the AC50 is 18.8 µM. For `O=c1c2ccc(Cl)cc2nc(-c2cccc(C(F)(F)F)c2)n1O` the value was 18.2 µM; for `COc1ccc(C[C@H]2NC[C@H](O)[C@H]2OC(C)=O)cc1`, 0.171 µM; for `NC(=O)c1sc2nc3c(c(-c4cccs4)c2c1N)CCCCC3`, 0.404 µM. In the case of `Cc1ccc(S(=O)(=O)c2ncccc2[N+](=O)[O-])cc1`, the AC50 is 16.5 µM.

As to `CC(C)(C)c1ccc2c(c1)OC(C(=O)N/N=C\c1ccc[nH]1)CO2` (stereo not drawn), the AC50 is 0.182 µM.

In the case of `CCOCCn1c(SCC(=O)OCc2ccccc2)nc2c1c(=O)[nH]c(=O)n2C`, the AC50 was > 19.5 µM (inactive).

Consider `O=C1C(Cl)=C(Nc2ccc3cn[nH]c3c2)C(=O)c2ccccc21`, for which the AC50 is 5.26 µM.

In the case of `CCCCCn1c(=O)c(C(=O)Nc2ccccn2)c(O)c2ccccc21`, the AC50 was 1.4 µM.

Consider `N#CCc1nn(-c2ccccc2)c2ncnc(N)c12`, for which the AC50 was > 19.5 µM (inactive). The value for `CC1=NNC(=O)/C1=C\c1cn(-c2ccccc2)nc1-c1ccc(Cl)cc1` was 17.4 µM; that for `CCOC(=O)N=Nc1c2ccccc2c2nc3no[nH]c3nc12` was 1.91 µM. For `O=c1c(Cl)c(Cl)cnn1-c1ccccc1` the value was 14.4 µM; for `Cc1ccccc1NC(=O)COC(=O)c1ccc(S(C)(=O)=O)c([N+](=O)[O-])c1`, 18.3 µM. As for `O=C(Nc1nc(-c2cccs2)cs1)c1cccc(S(=O)(=O)N2CCCCCC2)c1`, the AC50 is 0.674 µM. For `Cc1cc(C)c(S(=O)(=O)/N=C2\C=C(Nc3ccc(C(=O)O)cc3)C(=O)c3ccccc32)c(C)c1` the value was 4.97 µM; for `CCOc1cc(C(=S)N2CCOCC2)ccc1OS(=O)(=O)c1ccc(OC)cc1`, 16.1 µM.

Take `Fc1ccc(-n2cc(-c3ccccc3)c3c(N4CCOCC4)ncnc32)cc1`: the AC50 is 6.34 µM. `CC(Nc1ncnc2sccc12)c1ccccc1` (stereo not drawn): the AC50 was 0.349 µM. For `CCc1ccc(C(=O)Cn2ncc(Cl)c(Cl)c2=O)cc1` the value was 18.6 µM; for `CS(=O)(=O)c1nc(-c2ccccc2)cc(C(F)(F)F)n1`, 1.81 µM. The value for `O=C(c1nnsc1S(=O)(=O)c1ccc(Cl)cc1)N1CCOCC1` was 17.3 µM. For `Cc1ccc(S(=O)(=O)N2CCN(CC(=O)N/N=C\c3ccncc3)CC2)cc1` the value was > 19.5 µM (inactive); for `CCOc1c2ccc(C(=O)NCc3ccccc3OC)cc2nn1CC`, > 19.5 µM (inactive); for `CC1C/C(=N/Nc2nc3ccccc3[nH]2)CC(C)(C)C1` (stereo not drawn), > 19.5 µM (inactive). In the case of `COc1ccc2[nH]c3c(=O)n(CCCN4CCOCC4)cnc3c2c1`, the AC50 was > 19.5 µM (inactive). The value for `O=c1cc(-c2ccccc2)c2ccc(O)cc2o1` was > 19.5 µM (inactive). For `CCCCN(C(=O)COc1ccc(C)cc1OC)c1c(N)n(CCC)c(=O)[nH]c1=O` the value was > 19.5 µM (inactive).

Turning to `CCOc1ccc(NCC(=O)c2ccc(C)cc2)cc1`, the AC50 was 12.7 µM.

As to `Cn1c(-c2nonc2N)nc2ccccc21`, the AC50 is > 19.5 µM (inactive).
